Laboratory results as given in patent US20190330220A1, “METHODS OF MAKING SUBSTITUTED PORPHYRIN PHARMACEUTICAL COMPOUNDS AND COMPOSITIONS” (Duke University, priority 2016, published 2019).
Where two headings read alike, the source gives them in different places.

Legend:
[1] = background statement; cited from earlier work
cells = conditions: compared with ethyl analogue, background statement; cited from earlier work
[2] = toxicity compared with analogous alkyl-chain Mn porphyrins
[3] = rat Comet assay (genotoxicity); conditions: pre-clinical studies
[4] = lipophilicity of Mn porphyrin complex
[5] = electrochemistry, Mn(III)/Mn(II) reduction potential; assay type: physicochemical
Experimental: (§1) Electrochemistry, electrospray-ionization mass spectrometry (ESI-MS), UV-visible spectroscopy and SOD-like activity were carried out as previously described.^29, 32. All quantum chemistry calculations have been performed at the M06-2X/6-311++G(2d,p)//M06-2X/6-31+G(d) DFT level^33-38 using the Gaussian 09 software.^39 All frequency calculations were carried out at […] and used to characterize minima and transition states. The solvent effect has been taken into account using the CPCM continuum solvation model^40 for N,N-dimethylformamide (DMF). The free energies of reactants, transition states, and products have been obtained from the ideal gas partition functions for the structures optimized in solution^40 and corrected to include the compression work of the gas^41 (or liberation free energy^42) to standard 1 mol L^−1 concentration. The coulombic stabilization energy due to the formation of ionic pairs in DMF has also been included in the final results by approximating each ion as a sphere, whose volume was considered the same as that of the solute cavity;^43 the distance between cation and anion in the ionic pair was taken as the sum of the two sphere radii.

SOD-like activity = assay type: biochemical
Experimental: as §1

For CC[n+]1ccccc1-c1c2nc(c(-c3cccc[n+]3CC)c3ccc([n-]3)c(-c3cccc[n+]3CC)c3nc(c(-c4cccc[n+]4CC)c4ccc1[n-]4)C=C3)C=C2.[Mn+3] [MnTE-2-PyP^5+, Mn(III) meso-tetrakis-(N-ethylpyridinium-2-yl)porphyrins], the lipophilicity [1] is listed as “low lipophilicity”.

For CCCCCC[n+]1ccccc1-c1c2nc(c(-c3cccc[n+]3CCCCCC)c3ccc([n-]3)c(-c3cccc[n+]3CCCCCC)c3nc(c(-c4cccc[n+]4CCCCCC)c4ccc1[n-]4)C=C3)C=C2.[Mn+3] [MnTnHex-2-PyP^5+, Mn(III) meso-tetrakis-(N-n-hexylpyridinium-2-yl)porphyrin], the accumulation in cells (cells) is given as “higher levels than its ethyl analogue”.

With CCCCOCC[n+]1ccccc1C1=C2C=CC3=[N+]2[Mn]24[n]5c1ccc5C(c1cccc[n+]1CCOCCCC)=C1C=CC(=[N+]12)C(c1cccc[n+]1CCOCCCC)=c1ccc([n]14)=C3c1cccc[n+]1CCOCCCC [MnTnBuOE-2-PyP^5+, Mn(III) meso-tetrakis-(N-n-butoxyethylpyridinium-2-yl)porphyrin] the toxicity [2] was “low toxicity”, the “fold less toxic than analogous ortho alkyl MnP^5+” value ([2]; relative to analogous alkyl chains) was 4-5 fold and the “genotoxicity in a rat Comet assay” value [3] was “lack of genotoxicity”. The lipophilicity [4] was “lipophilic”, the “Mn(III)/Mn(II) reduction potential (E1/2)” value [5] was “high” and the SOD-like activity (SOD-like activity) was “high”.
